The structures appear in SMILES notation.

In this experiment the target is T1, hMC2 receptor (crude hMC2R membranes from CRE-bla-CHO-K1 cells stably expressing hMC2 receptor and hMRAP accessory protein) (Homo sapiens, UniProt Q01718).
T1 construct: crude membrane fractions
T1 sequence (Q01718 whole entry): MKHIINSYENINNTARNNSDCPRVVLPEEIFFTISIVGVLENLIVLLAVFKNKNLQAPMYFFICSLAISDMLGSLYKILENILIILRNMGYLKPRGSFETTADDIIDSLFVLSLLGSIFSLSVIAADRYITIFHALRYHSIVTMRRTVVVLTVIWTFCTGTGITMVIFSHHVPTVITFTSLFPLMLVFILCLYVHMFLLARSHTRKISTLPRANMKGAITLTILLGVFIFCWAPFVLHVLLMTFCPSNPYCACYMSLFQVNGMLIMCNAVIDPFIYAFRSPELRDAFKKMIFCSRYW
T1 sequence (Q8TCY5 whole entry partner): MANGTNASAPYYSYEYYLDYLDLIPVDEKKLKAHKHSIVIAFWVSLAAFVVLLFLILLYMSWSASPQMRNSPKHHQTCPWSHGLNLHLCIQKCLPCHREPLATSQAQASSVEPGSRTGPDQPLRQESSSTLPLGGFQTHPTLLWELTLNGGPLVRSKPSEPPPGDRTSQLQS
In words: hMC2 membrane binding assay ([125I]ACTH (1-39) Tyr23, SPA). The following applies: displacement of 0.2 nM [125I]ACTH (1-39) Tyr23 from hMC2R membranes, 1.5 hours at room temperature; read-out: MC2R binding potency. As for the experimental part:
Crude membrane fractions are prepared from CRE-bla-CHO-K1 cells stably expressing hMC2 receptor and hMRAP accessory protein (Thermo Fisher). The cells are grown to 85-100% confluence on standard tissue culture dishes in GlutaMax DMEM growth media (Gibco) with following additives: 10% dialyzed FBS (Gemini), 0.1 mM NEAA (Gibco), 25 mM HEPES (Gibco), 5 μg/mL blasticidin (Goldbio), 100 μg/mL zeocin (Invitrogen), 600 μg/mL hygromycin (Goldbio). To prepare membranes, cells are scraped and collected in 1× Dulbecco's phosphate buffered saline (Corning) and then pelleted at 1000 RPM's. The cell pellet is reconstituted in membrane preparation buffer (20 mM HEPES, 6 mM MgCl2 and 1 mM EGTA, protease inhibitor tablets (Pierce) adjusted to pH 7.4), homogenized using a dounce homogenizer, and the resulting membrane fraction is pelleted by centrifugation at 12,000 RPM's. The membrane pellet is resuspended in membrane preparation buffer, snap freezed and stored at −80° C. for later use.
Binding Assay for hMC2 Antagonists Protocol:
The hMC2 membrane binding assay utilizes the following components: radiolabel [^125I]ACTH (1-39) Tyr23 (PerkinElmer), wheatgerm agglutinin coated PVT SPA beads (PerkinElmer), crude hMC2R membranes, and compounds. Briefly hMC2R membranes are incubated with SPA beads in binding assay buffer (50 mM HEPES, 5 mM MgCl2, 1 mM CaCl2), 0.20% BSA, protease inhibitor tablets (Pierce) adjusted to pH7.4) prior to assay initiation. […] Assay plates are read using a Top Count NXT and Ki values for compounds are determined using a GraphPad Prism 6 non-linear regression analysis.
`CCOc1ncccc1-c1ccc(C2(C(=O)N[C@H]3CCN(C)C3)CCN(c3ccccc3C#N)CC2)cn1` [Compound 1-32, 1-(2-cyanophenyl)-4-{2′-ethoxy-[2,3′-bipyridin]-5-yl}-N-[(3S)-1-methylpyrrolidin-3-yl]piperidine-4-carboxamide]: the Ki lay in the range of 10 to 100 nM.
Under `CCOc1ncccc1-c1ccc(C2(C(=O)N[C@@H]3CCN(C)C3)CCN(c3ccc(C(F)(F)F)nc3C(N)=O)CC2)cn1` [Compound 1-25, 3-(4-{2′-ethoxy-[2,3′-bipyridin]-5-yl}-4-{[(3R)-1-methylpyrrolidin-3-yl]carbamoyl}piperidin-1-yl)-6-(trifluoromethyl)pyridine-2-carboxamide] stands 10 to 100 nM; under `COc1ccc(F)cc1-c1ncc(C2(C(=O)N[C@H]3CCN(C)C3)CCN(c3ccc(C(F)(F)F)cc3F)CC2)cc1F` [Compound 1-204, 1-[2-fluoro-4-(trifluoromethyl)phenyl]-4-[5-fluoro-6-(5-fluoro-2-methoxyphenyl)pyridin-3-yl]-N-[(3S)-1-methylpyrrolidin-3-yl]piperidine-4-carboxamide], less than 10 nM; under `CN(C)CCNC(=O)C1(c2ccc(-c3cccn3C)nc2)CCN(c2ccc(C(F)(F)F)cc2F)CC1` [Compound 1-276, N-[2-(dimethylamino)ethyl]-1-[2-fluoro-4-(trifluoromethyl)phenyl]-4-[6-(1-methyl-1H-pyrrol-2-yl)pyridin-3-yl]piperidine-4-carboxamide], less than 10 nM.
Take `CCOc1ncccc1-c1ccc(C2(NC(=O)N[C@@H]3CCN(C)C3)CCN(c3ccc(C(F)(F)F)cc3C#N)CC2)cn1` [Compound 2-19, 1-{1-[2-cyano-4-(trifluoromethyl)phenyl]-4-{2′-ethoxy-[2,3′-bipyridin]-5-yl}piperidin-4-yl}-3-[(3R)-1-methylpyrrolidin-3-yl]urea]: the Ki was less than 10 nM.
Under `COc1ccccc1-c1ccc(C2(NC(=O)O[C@H]3CCN(C)C3)CCN(c3ccc(C(F)(F)F)cc3C#N)CC2)cn1` [Compound 2-53, (3S)-1-methylpyrrolidin-3-yl N-{1-[2-cyano-4-(trifluoromethyl)phenyl]-4-[6-(2-methoxyphenyl)pyridin-3-yl]piperidin-4-yl}carbamate] stands less than 10 nM; under `CNCCCNC(=O)C1(c2cnc(-c3ccccc3OC)c(F)c2)CCN(c2ccc(C(F)(F)F)cc2C#N)CC1` [Compound 1-197, 1-[2-cyano-4-(trifluoromethyl)phenyl]-4-[5-fluoro-6-(2-methoxyphenyl)pyridin-3-yl]-N-[3-(methylamino)propyl]piperidine-4-carboxamide], less than 10 nM.
With `Cn1cccc1-c1ccc(C2(C(=O)N[C@H]3C[C@@H](N(C)C)C3)CCN(c3ccc(C(F)(F)F)cc3C#N)CC2)cn1` [Compound 1-239, 1-[2-cyano-4-(trifluoromethyl)phenyl]-4-[6-(1-methyl-1H-pyrrol-2-yl)pyridin-3-yl]-N-[(1S,3S)-3-(dimethylamino)cyclobutyl]piperidine-4-carboxamide] the figure was 10 to 100 nM.
With `CCOc1ncccc1-c1ncc(C2(C(=O)N[C@@H]3CCN(C)C3)CCN(c3ccc(C(F)(F)F)cc3C#N)CC2)cn1` [Compound 1-107, 1-[2-cyano-4-(trifluoromethyl)phenyl]-4-[2-(2-ethoxypyridin-3-yl)pyrimidin-5-yl]-N-[(3R)-1-methylpyrrolidin-3-yl]piperidine-4-carboxamide] the figure was less than 10 nM.
On to `CCOc1ncccc1-c1ccc(C2(C(=O)NCCN(C)C)CCN(c3ccc(C(F)(F)F)cc3C#N)CC2)cn1` [Compound 1-15, 1-[2-cyano-4-(trifluoromethyl)phenyl]-N-[2-(dimethylamino)ethyl]-4-{2′-ethoxy-[2,3′-bipyridin]-5-yl}piperidine-4-carboxamide], for which the Ki is 10 to 100 nM.
With `CCOc1ncccc1-c1ncc(C2(C(=O)N[C@H]3CCN(C)C3)CCN(c3ccc(C(F)(F)F)cc3C#N)CC2)cn1` [Compound 1-106, 1-[2-cyano-4-(trifluoromethyl)phenyl]-4-[2-(2-ethoxypyridin-3-yl)pyrimidin-5-yl]-N-[(3S)-1-methylpyrrolidin-3-yl]piperidine-4-carboxamide], the Ki was less than 10 nM.
